What was measured:
[1] = system: L1210; experiment: Compound was tested for its inhibitory concentration to inhibit the growth of wild type L1210 cells.; type: functional, cell-based, Mus musculus
[2] = species: Mus musculus; experiment: Compound was tested against weight change in mice with L1210 leukemia cells on 10 th Day at Dose 80 mg / kg; settings: at 80 mg/kg
[3] = system: L1210; experiment: Compound was tested for its inhibitory concentration to inhibit the growth of wild type L1210 cells and a subline ( L1210 / R81 ).; type: functional, cell-based; settings: Mus musculus
[4] = species: Homo sapiens; experiment: Compound was tested for its inhibitory concentration against human leukemic lymphoblasts ( CEM Cells ).; type: functional; settings: CCRF-CEM
[5] = system: Mus musculus; experiment: Increase in life span of mice with L1210 leukemia cells at a dose of 20 mg/kg; type: functional
[6] = species: Homo sapiens; experiment: Compound was tested for its inhibitory concentration against human leukemic lymphoblasts (CEM Cells) and a resistant subline (CEM / MTX).; type: functional; settings: CCRF-CEM
[7] = system: Mus musculus; experiment: Increase in life span of mice with L1210 leukemia cells at a dose of 80 mg/kg; Toxic; type: functional, organism-based; parameters: dose 80 mg/kg
[8] = system: Mus musculus; experiment: Median Survival days of mice infected with L1210 leukemia cells at dose 80 mg/kg relative to that of 9 days for control; Toxic; type: functional, organism-based; parameters: dose 80 mg/kg
[9] = system: Mus musculus; experiment: Increase in life span of mice with L1210 leukemia cells at a dose of 40 mg/kg; type: functional
[10] = biological target: T1, Dihydrofolate reductase (Mus musculus) (UniProt P00375); settings: L1210
T1 sequence (whole entry): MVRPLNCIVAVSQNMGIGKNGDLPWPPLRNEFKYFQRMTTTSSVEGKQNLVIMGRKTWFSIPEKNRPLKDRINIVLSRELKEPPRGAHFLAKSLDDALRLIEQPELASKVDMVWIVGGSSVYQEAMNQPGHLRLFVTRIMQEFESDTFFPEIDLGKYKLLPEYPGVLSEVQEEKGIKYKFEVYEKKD
Description: Compound was tested for inhibition of the enzyme DiHydroFolate Reductase (DHFR) from murine L1210 leukemia cells

[11] = system: Mus musculus; experiment: Median Survival days of mice infected with L1210 leukemia cells at dose 40 mg/kg relative to that of 9 days for control; type: functional
[12] = species: Mus musculus; experiment: Compound was tested against weight change in mice with L1210 leukemia cells on 10 th Day at Dose 20 mg / kg; settings: at 20 mg/kg
[13] = biological target: T2, Dihydrofolate reductase (Mus musculus, UniProt P00375); experiment: biochemical
T2 sequence (P00375 whole entry): T1 sequence (whole entry)
Description: Compound was tested for its inhibitory concentration to inhibit the enzyme Dihydro Folate Reductase (DHFR) from murine L1210 leukemia cells.

[14] = system: Mus musculus; experiment: Median Survival days of mice infected with L1210 leukemia cells at dose 20 mg/kg relative to that of 9 days for control; type: functional
[15] = species: Mus musculus; experiment: Compound was tested against weight change in mice with L1210 leukemia cells on 10 th Day at Dose 40 mg / kg; settings: at 40 mg/kg
[16] = system: Mus musculus; experiment: Increase in life span of mice with L1210 leukemia cells at a dose of 1 mg/kg; type: functional
[17] = system: Mus musculus; experiment: Median Survival days of mice infected with L1210 leukemia cells at dose 0.5 mg/kg relative to that of 9 days for control; type: functional
[18] = system: Mus musculus; experiment: Increase in life span of mice with L1210 leukemia cells at a dose of 0.5 mg/kg; type: functional
[19] = species: Mus musculus; experiment: Compound was tested against weight change in mice with L1210 leukemia cells on 7 th Day at Dose 1 mg / kg; type: functional; settings: at 1 mg/kg
[20] = system: Mus musculus; experiment: Median Survival days of mice infected with L1210 leukemia cells at dose 1 mg/kg relative to that of 9 days for control; type: functional
[21] = species: Mus musculus; experiment: Compound was tested against weight change in mice with L1210 leukemia cells on 7 th Day at Dose 0.5 mg / kg; type: functional; settings: at 0.5 mg/kg
[22] = species: Homo sapiens; experiment: Compound was tested for its inhibitory concentration against human leukemic lymphoblasts (CEM Cells); type: functional; settings: CCRF-CEM

`Nc1nc(N)c2nc(CNc3ccc(C(=O)NC(CCC(=O)NCc4ccccc4)C(=O)O)cc3)cnc2n1` (configuration not stated) was tested, and the IC50 ([1]; Mus musculus, L1210) was 5 nM, the IC50 ([1]; l1210) was 7.1 nM and the Weight change [2] was -26%. It also gave an IC50 [3] of 17 µM, an IC50 [4] of 65 nM and an ILS at 20 mg/kg [5] of 33%. For the same compound, the IC50 [6] was 6 µM, the ILS [7] was “Toxic” and the Survival [8] was “Toxic”. It also gave an ILS at 40 mg/kg [9] of 56%, an IC50/[E] [10] of 2.2 and a Survival [11] of 14 days. For the same compound, the Weight change [12] was 13%, the IC50 [13] was 87 nM and the Survival [14] was 12 days. It also gave a Weight change [15] of 3%.
Work on `Nc1nc(N)c2nc(CNc3ccc(C(=O)N[C@@H](CCC(=O)O)C(=O)O)cc3)cnc2n1` [AMINOPTERIN] yielded an IC50 ([1]; Mus musculus, L1210) of 3 nM, an ILS at 1 mg/kg [16] of 122% and a Survival [17] of 17 days. For the same compound, the IC50 [6] was 0.32 µM, the ILS at 0.5 mg/kg [18] was 89% and the Weight change [19] was -5%. It also gave an IC50/[E] [10] of 0.5, a Survival [20] of 20 days and a Weight change [21] of -4%. For the same compound, the IC50 [22] was 1 nM and the IC50 [13] was 20 nM.

— ChEMBL document CHEMBL1123432, “Methotrexate analogues. 28. Synthesis and biological evaluation of new gamma-monoamides of aminopterin and methotrexate” (J Med Chem, 1986)
